Results as given in patent US9497970B2, “Pesticide compounds” (priority 2013, dated 2016).

Key:
Format in all cases: in vivo
[1] = tested on: Diamond Back Moth (Plutella xylostella); assay: B.1 Diamond Back Moth (Plutella xylostella), cabbage leaf dip; conditions: foliar, 500 ppm, 3rd instar larvae on dipped cabbage leaves, 72 hours after treatment, in comparison with untreated controls, read-out: mortality
Description: B.1 Diamond Back Moth (Plutella xylostella)
The active compound was dissolved at the desired concentration in a mixture of 1:1 (vol:vol) distilled water:aceteone. Surfactant (Kinetic HV) was added at a rate of 0.01% (vol/vol). The test solution was prepared at the day of use.
Leaves of cabbage were dipped in test solution and air-dried. Treated leaves were placed in petri dishes lined with moist filter paper and inoculated with ten 3rd instar larvae. Mortality was recorded 72 hours after treatment. Feeding damages were also recorded using a scale of 0-100%.

[2] = tested on: Boll Weevil (Anthonomus grandis); assay: B.3 Boll Weevil (Anthonomus grandis), microtiter plate insect diet; conditions: 120 h, 800 ppm, sprayed onto insect diet, 5 days, in comparison with untreated controls, read-out: mortality (egg and larval)
Description: B.3 Boll Weevil (Anthonomus grandis)
For evaluating control of boll weevil (Anthonomus grandis) the test unit consisted of 96-well-microtiter plates containing an insect diet and 5-10 A. grandis eggs.
(§1) The compounds were formulated using a solution containing 75% v/v water and 25% v/v DMSO. Different concentrations of formulated compounds were sprayed onto the insect diet at 5 μl, using a custom built micro atomizer, at two replications.
After application, microtiter plates were incubated at about 25±1° C. and about 75±5% relative humidity for 5 days. Egg and larval mortality was then visually assessed.

[3] = tested on: Mediterranean Fruitfly (Ceratitis capitata); assay: B.6 Mediterranean Fruitfly (Ceratitis capitata), microtiter plate insect diet; conditions: 120 h, 800 ppm, sprayed onto insect diet, 5 days, in comparison with untreated controls, read-out: mortality (egg and larval)
Description: B.6 Mediterranean Fruitfly (Ceratitis capitata)
For evaluating control of Mediterranean fruitfly (Ceratitis capitata) the test unit consisted of microtiter plates containing an insect diet and 50-80 C. capitata eggs.
as §1
(§2) After application, microtiter plates were incubated at about 28±1° C. and about 80±5% relative humidity for 5 days. Egg and larval mortality was then visually assessed.

[4] = tested on: Tobacco Budworm (Heliothis virescens); assay: B.7 Tobacco Budworm (Heliothis virescens) I, microtiter plate insect diet; conditions: 120 h, 800 ppm, sprayed onto insect diet, 5 days, in comparison with untreated controls, read-out: mortality (egg and larval)
Description: B.7 Tobacco Budworm (Heliothis virescens) I
as §1, with “For evaluating control of tobacco budworm (Heliothis virescens) the test unit consisted of 96-well-microtiter plates containing an insect diet and 15-25 H. virescens eggs. The” for “The”, “at 10” for “at 5”
as §2

| Compound | mortality at 500 ppm [1] | mortality at 800 ppm [2] | mortality at 800 ppm [3] | mortality at 800 ppm [4] |
| --- | --- | --- | --- | --- |
| FC(F)(F)Oc1ccc(-n2cnc3c4ccc(/C=N/NC(=S)Nc5c(Cl)cc(Cl)cc5Cl)cc4ccc32)cc1 [C-3, 1-(2,4,6-trichlorophenyl)-3-[(E)-[3-[4-(trifluoromethoxy)phenyl]benzo[e]benzimidazol-7-yl]methyleneamino] thiourea] | ≥ 75% | ≥ 75% | ≥ 75% | ≥ 75% |
| Cc1cccc(C)c1NC(=S)N/N=C/c1ccc2c(c1)CCc1c-2nnn1-c1ccc(OC(F)(F)F)cc1 [C-11, 1-(2,6-dimethylphenyl)-3-[(E)-[3-[4-(trifluoromethoxy)phenyl]-4,5-dihydrobenzo[e]benzotriazol-7-yl]methyleneamino]thiourea] | – | – | ≥ 75% | ≥ 75% |
| COc1ccccc1NC(=S)N/N=C/c1ccc2c(ccc3c2ncn3-c2ccc(OC(F)(F)F)cc2)c1 [C-26, 3-(2-methoxyphenyl)-1-[[3-[4-(trifluoromethoxy)phenyl]-9aH-benzo[e]benzimidazol-7-ylidene]methylimino] isothiourea] | ≥ 75% | ≥ 75% | ≥ 75% | ≥ 75% |
| FC(F)(F)Oc1ccc(-n2cnc3c4ccc(/C=N/NC(=S)Nc5ccc(Cl)cc5Cl)cc4ccc32)cc1 [C-27, 1-(2,4-dichlorophenyl)-3-[(E)-[3-[4-(trifluoromethoxy)phenyl]benzo[e]benzimidazol-7-yl]methyleneamino]thiourea] | ≥ 75% | ≥ 75% | ≥ 75% | – |
| Cc1cccc(NC(=S)N/N=C/c2ccc3c(ccc4c3ncn4-c3ccc(OC(F)(F)F)cc3)c2)c1C [C-28, 1-(2,3-dimethylphenyl)-3-[(E)-[3-[4-(trifluoromethoxy)phenyl]benzo[e]benzimidazol-7-yl]methyleneamino] thiourea] | – | ≥ 75% | ≥ 75% | ≥ 75% |
| FC(F)(F)Oc1ccc(-n2cnc3c4ccc(/C=N/NC(=S)Nc5cccc6ccccc56)cc4ccc32)cc1 [C-29, 1-(2H-naphthalen-1-ylidene)-3-[[3-[4-(trifluoromethoxy)phenyl]-9aH-benzo[e]benzimidazol-7-ylidene]methylimino] thiourea] | ≥ 75% | ≥ 75% | ≥ 75% | ≥ 75% |
| CCc1ccccc1NC(=S)N/N=C/c1ccc2c(c1)CCc1c-2nnn1-c1ccc(OC(F)(F)F)cc1 [C-32, 1-(2-ethylphenyl)-3-[[3-[4-(trifluoromethoxy)phenyl]-5,6-dihydro-4H-benzo[e]benzotriazol-7-ylidene]methylimino]thiourea] | – | ≥ 75% | – | – |
| Cc1cc(Br)cc(C)c1NC(=S)N/N=C/c1ccc2c(c1)CCc1c-2nnn1-c1ccc(OC(F)(F)F)cc1 [C-33, 1-(4-bromo-2,6-dimethyl-phenyl)-3-[(E)-[3-[4-(trifluoromethoxy)phenyl]-4,5-dihydrobenzo[e]benzotriazol-7-yl]methyleneamino]thiourea] | – | ≥ 75% | – | ≥ 75% |
| Cc1c(Cl)cccc1NC(=S)N/N=C/c1ccc2c(ccc3c2ncn3-c2ccc(OC(F)(F)F)cc2)c1 [C-39, 1-(3-chloro-2-methyl-phenyl)-3-[(E)-[3-[4-(trifluoromethoxy)phenyl]benzo[e]benzimidazol-7-yl]methyleneamino] thiourea] | – | ≥ 75% | ≥ 75% | ≥ 75% |
| Fc1ccccc1NC(=S)N/N=C/c1ccc2c(ccc3c2ncn3-c2ccc(OC(F)(F)F)cc2)c1 [C-40, 3-(2-fluorophenyl)-1-[[3-[4-(trifluoromethoxy)phenyl]-5H-benzo[e]benzimidazol-7-ylidene]methylimino] isothiourea] | ≥ 75% | ≥ 75% | ≥ 75% | – |
| FC(F)(F)Oc1ccc(-n2cnc3c4ccc(/C=N/NC(=S)Nc5cc(Cl)ccc5Cl)cc4ccc32)cc1 [C-42, 1-(2,5-dichlorophenyl)-3-[(E)-[3-[4-(trifluoromethoxy)phenyl]benzo[e]benzimidazol-7-yl]methyleneamino] thiourea] | – | ≥ 75% | – | – |
| Cc1cccc(C)c1NC(=S)N/N=C/c1ccc2c(ccc3c2cnn3-c2ccc(OC(F)(F)F)cc2)c1 [C-46, (E)-N-(2,6-dimethylphenyl)-2-((3-(4-(trifluoromethoxy)phenyl)-3H-benzo[e]indazol-7-yl)methylene)hydrazinecarbothioamide] | ≥ 75% | ≥ 75% | ≥ 75% | ≥ 75% |
| FC(F)(F)Oc1ccc(-n2ncc3c4ccc(/C=N/NC(=S)Nc5c(Cl)cccc5Cl)cc4ccc32)cc1 [C-49, 1-(2,6-dichlorophenyl)-3-[(E)-[3-[4-(trifluoromethoxy)phenyl]benzo[e]indazol-7-yl]methyleneamino]thiourea] | – | ≥ 75% | – | ≥ 75% |
| Cc1cccc(C)c1NC(=S)N/N=C/c1ccc2c(ccc3c2nnn3-c2ccc(OC(F)(F)F)cc2)c1 [C-54, 1-(2,6-dimethylphenyl)-3-[(E)-[3-[4-(trifluoromethoxy)phenyl]benzo[e]benzotriazol-7-yl]methyleneamino] thiourea] | – | – | – | ≥ 75% |
| C/C(=N\NC(=S)Nc1c(Cl)cccc1Cl)c1ccc2c(ccc3c2ncn3-c2ccc(OC(F)(F)F)cc2)c1 [C-59] | – | ≥ 75% | ≥ 75% | ≥ 75% |
| CCc1cccc(CC)c1NC(=S)N/N=C/c1ccc2c(ccc3c2nnn3-c2ccc(OC(F)(F)F)cc2)c1 [C-61, 1-(2,6-diethylphenyl)-3-[(E)-[3-[4-(trifluoromethoxy)phenyl]benzo[e]benzotriazol-7-yl]methyleneamino] thiourea] | – | ≥ 75% | – | ≥ 75% |
| CCc1cccc(C)c1NC(=S)N/N=C/c1ccc2c(ccc3c2nnn3-c2ccc(OC(F)(F)F)cc2)c1 [C-62, 1-(2-ethyl-6-methyl-phenyl)-3-[(E)-[3-[4-(trifluoromethoxy)phenyl]benzo[e]benzotriazol-7-yl]methyleneamino] thiourea] | – | – | – | ≥ 75% |
| Cc1cccnc1NC(=S)N/N=C/c1ccc2c(ccc3c2ncn3-c2ccc(OC(F)(F)F)cc2)c1 [C-63, 1-(3-methyl-2-pyridyl)-3-[(E)-[3-[4-(trifluoromethoxy)phenyl]benzo[e]benzimidazol-7-yl]methyleneamino] thiourea] | – | ≥ 75% | ≥ 75% | ≥ 75% |
| FC(F)(F)Oc1ccc(-n2cnc3c4ccc(/C=N/NC(=S)Nc5ccccc5I)cc4ccc32)cc1 [C-64, 1-(2-iodophenyl)-3-[[3-[4-(trifluoromethoxy)phenyl]-5H-benzo[e]benzimidazol-7-ylidene]methylimino] thiourea] | – | ≥ 75% | ≥ 75% | ≥ 75% |
| FC(F)(F)Oc1ccc(-n2cnc3c4ccc(/C=N/NC(=S)Nc5cccnc5)cc4ccc32)cc1 [C-73, 1-(3-pyridyl)-3-[(E)-[3-[4-(trifluoromethoxy)phenyl]benzo[e]benzimidazol-7-yl]methyleneamino] thiourea] | – | ≥ 75% | – | – |
| O=C(N/N=C/c1ccc2c(ccc3c2ncn3-c2ccc(OC(F)(F)F)cc2)c1)Nc1ccccc1 [C-89, 1-phenyl-3-[(E)-[3-[4-(trifluoromethoxy)phenyl]benzo[e]benzimidazol-7-yl]methyleneamino]urea] | ≥ 75% | ≥ 75% | – | ≥ 75% |
| CN1N=C2c3ccc(/C=N/NC(=S)Nc4c(Cl)cccc4Cl)cc3CCC2C1c1ccc(OC(F)(F)F)cc1 (centres unmarked) [C-95, 1-(2,6-dichlorophenyl)-3-[(E)-[2-methyl-3-[4-(trifluoromethoxy)phenyl]-3,3a,4,5-tetrahydrobenzo[g]indazol-7-yl]methyleneamino]thiourea] | ≥ 75% | ≥ 75% | – | ≥ 75% |
| Cn1nc2c(ccc3cc(/C=N/NC(=S)Nc4ncccc4I)ccc32)c1-c1ccc(OC(F)(F)F)cc1 [C-102, 1-(3-iodo-2-pyridyl)-3-[(E)-[2-methyl-3-[4-(trifluoromethoxy)phenyl]benzo[g]indazol-7-yl]methyleneamino]thiourea] | – | ≥ 75% | – | – |
| O=C(/N=C1\SCC(=O)N1c1ccccc1C(F)(F)F)Nc1ccc2c(ccc3c2ncn3-c2ccc(OC(F)(F)F)cc2)c1 [C-116, (1Z)-1-[4-oxo-3-[2-(trifluoromethyl)phenyl]thiazolidin-2-ylidene]-3-[3-[4-(trifluoromethoxy)phenyl]-8H-benzo[e]benzimidazol-7-ylidene]urea] | – | ≥ 75% | – | ≥ 75% |
